Data on two compounds can be found in US6955908B1, “Organism associated with nongonococcal urethritis” (priority 2000, dated 2005).

Structures are written as SMILES.

In assay [1] the test system is SPR (Spiky Rotating Cells). As to the kind of experiment: Treatment of patients with SPR infection. Format: in vivo, human. Particulars: oral treatment of patients. The source says:
My discovery of the novel SPR organism also provides for the treatment of SPR infections in male and female patients. The method involves first diagnosing the SPR infection, and then, upon obtaining a positive diagnosis, administering to the patient an SPR-inhibiting amount of an anti-SPR agent selected from the group consisting of itraconazole, ofloxacin, metronidazole.
One such drug is itraconazole, sold under the trade name SPORANOX®, available from Jansen Pharmaceuticals. The patient ingests one 200 mg tablet per day for three-four weeks.
The patient takes 500 mg twice per day for six weeks.
Yet another drug that is effective in treating SPR infection is ofloxacin, sold under the trade name FLOXIN®. The patient takes 400 mg twice per day for two weeks.

The conditions of assay [2]: cited from earlier work.
The next assay has as its system Chlamydia. The note with it: single dose (Martin); cited from earlier work.
For the next assay, the system named is Ureaplasma. The note with it: Stamm and colleagues; cited from earlier work.

With `Cc1ncc([N+](=O)[O-])n1CCO` [metronidazole], in assay [1], the “effectiveness in treating infection with SPR” value is reported as “can be used to treat SPR infection”. Further, the “clinical efficacy in refractory cases” value in assay [2] (refractory cases, smaller series (Toth)) is listed as “good clinical efficacy”.
Turning to `CC[C@H]1OC(=O)[C@H](C)[C@@H](O[C@H]2C[C@@](C)(OC)[C@@H](O)[C@H](C)O2)[C@H](C)[C@@H](O[C@@H]2O[C@H](C)C[C@H](N(C)C)[C@H]2O)[C@](C)(O)C[C@@H](C)CN(C)[C@H](C)[C@@H](O)[C@]1(C)O` [Azithromycin], the “efficacy in uncomplicated chlamydial urethritis compared with Doxycycline” value with Chlamydia is reported as “comparable to Doxycycline”. Besides, in assay [2] (Stamm and colleagues), the “cases of NGU cured” value is 78% and the “overall effectiveness in NGU compared with Doxycycline” value was “overall as effective as Doxycyline”. The “Ureaplasma cases that responded” value in the assay with Ureaplasma was 47%.
